Test results: ChEMBL document CHEMBL1201862, “PubChem BioAssay data set” (2004)
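Cells were grown in 96-well plates and exposed to each compound for 48 hours at five concentrations; endpoints were interpolated linearly between bracketing concentrations, or set to the highest concentration if not reached. GI50 is the concentration that inhibits growth by half.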 Active and inactive are the calls of the source. Rule as the data show it: active = GI50 up to about 1.1 µM and inactive = higher.

Key:
Test in all cases: DTP human tumour cell line panel, 48 h
[1] = test system: 786-0
[2] = test system: A498
[3] = test system: A549
[4] = test system: ACHN
[5] = test system: BT-549
[6] = test system: CAKI-1
[7] = test system: CCRF-CEM
[8] = test system: COLO 205
[9] = test system: DU-145
[10] = test system: EKVX
[11] = test system: HCC 2998
[12] = test system: HCT-116
[13] = test system: HCT-15
[14] = test system: HL-60
[15] = test system: HOP-62
[16] = test system: HOP-92
[17] = test system: HT-29
[18] = test system: Hs-578T
[19] = test system: IGROV-1
[20] = test system: K562
[21] = test system: KM12
[22] = test system: LOX IMVI
[23] = test system: M14
[24] = test system: MCF7
[25] = test system: MDA-MB-231
[26] = test system: MDA-MB-435
[27] = test system: MDA-N
[28] = test system: MOLT-4
[29] = test system: Malme-3M
[30] = test system: NCI-H226
[31] = test system: NCI-H23
[32] = test system: NCI-H460
[33] = test system: NCI-H522
[34] = test system: NCI/ADR-RES
[35] = test system: OVCAR-3
[36] = test system: OVCAR-4
[37] = test system: OVCAR-5
[38] = test system: OVCAR-8
[39] = test system: PC-3
[40] = test system: RPMI-8226
[41] = test system: RXF 393
[42] = test system: SF-268
[43] = test system: SF-295
[44] = test system: SF-539
[45] = test system: SK-MEL-28
[46] = test system: SK-MEL-2
[47] = test system: SK-MEL-5
[48] = test system: SK-OV-3
[49] = test system: SN12C
[50] = test system: SNB-19
[51] = test system: SNB-75
[52] = test system: SR
[53] = test system: SW-620
[54] = test system: T47D
[55] = test system: TK-10
[56] = test system: U-251
[57] = test system: UACC-257
[58] = test system: UACC-62
[59] = test system: UO-31

ClCc1nn(-c2ccccc2)c(CCl)c1CCl
GI50 [1]: 2.56 µM (inactive)
GI50 [2]: 12 µM (inactive)
GI50 [3]: 7.66 µM (inactive)
GI50 [4]: 2.96 µM (inactive)
GI50 [5]: 3.77 µM (inactive)
GI50 [6]: 7.31 µM (inactive)
GI50 [7]: 1.17 µM (inactive)
GI50 [8]: 3.88 µM (inactive)
GI50 [9]: 4.68 µM (inactive)
GI50 [10]: 3.03 µM (inactive)
GI50 [11]: 12.1 µM (inactive)
GI50 [12]: 2.33 µM (inactive)
GI50 [13]: 3.33 µM
GI50 [14]: 1.82 µM (inactive)
GI50 [15]: 15.8 µM (inactive)
GI50 [16]: 3.33 µM (inactive)
GI50 [17]: 3.43 µM (inactive)
GI50 [18]: 14.5 µM (inactive)
GI50 [19]: 3.44 µM (inactive)
GI50 [20]: 2.54 µM (inactive)
GI50 [21]: 3.37 µM (inactive)
GI50 [22]: 1.47 µM (inactive)
GI50 [23]: 3.3 µM (inactive)
GI50 [24]: 2.38 µM (inactive)
GI50 [25]: 4.34 µM (inactive)
GI50 [26]: 2.41 µM (inactive)
GI50 [27]: 2.88 µM (inactive)
GI50 [28]: 1.72 µM (inactive)
GI50 [29]: 2.99 µM (inactive)
GI50 [30]: 4.45 µM (inactive)
GI50 [31]: 4.46 µM (inactive)
GI50 [32]: 2.66 µM (inactive)
GI50 [33]: 4.25 µM (inactive)
GI50 [34]: 5.57 µM (inactive)
GI50 [35]: 3.47 µM (inactive)
GI50 [36]: 2.72 µM (inactive)
GI50 [37]: 7.16 µM (inactive)
GI50 [38]: 2.35 µM (inactive)
GI50 [39]: 5.71 µM (inactive)
GI50 [40]: 2.52 µM (inactive)
GI50 [41]: 4.82 µM (inactive)
GI50 [42]: 3.27 µM (inactive)
GI50 [43]: 6 µM (inactive)
GI50 [44]: 2.34 µM (inactive)
GI50 [45]: 5.32 µM (inactive)
GI50 [46]: 5.71 µM (inactive)
GI50 [47]: 2.68 µM (inactive)
GI50 [48]: 8.89 µM (inactive)
GI50 [49]: 3.11 µM (inactive)
GI50 [50]: 6.73 µM (inactive)
GI50 [51]: 1.74 µM (inactive)
GI50 [52]: 0.813 µM (active)
GI50 [53]: 2.55 µM (inactive)
GI50 [54]: 3.55 µM (inactive)
GI50 [55]: 8.39 µM (inactive)
GI50 [56]: 2.35 µM (inactive)
GI50 [57]: 7.76 µM (inactive)
GI50 [58]: 3.47 µM (inactive)
GI50 [59]: 4.74 µM (inactive)

CC(C)c1[nH]nc(C(N)=O)c1/N=N/N(C)C
GI50 [1]: > 100 µM (inactive)
GI50 [2]: > 100 µM (inactive)
GI50 [3]: 23.7 µM (inactive)
GI50 [4]: 65 µM (inactive)
GI50 [5]: 34.9 µM (inactive)
GI50 [6]: 16 µM (inactive)
GI50 [7]: 36.6 µM (inactive)
GI50 [8]: 67.9 µM (inactive)
GI50 [9]: 97.9 µM (inactive)
GI50 [10]: 47.9 µM (inactive)
GI50 [11]: > 100 µM (inactive)
GI50 [12]: 98.4 µM (inactive)
GI50 [13]: > 100 µM
GI50 [14]: > 100 µM (inactive)
GI50 [15]: > 100 µM (inactive)
GI50 [16]: 47.4 µM (inactive)
GI50 [17]: > 100 µM (inactive)
GI50 [18]: 54.7 µM (inactive)
GI50 [19]: > 100 µM (inactive)
GI50 [20]: 79.8 µM (inactive)
GI50 [21]: 61.1 µM (inactive)
GI50 [22]: 35.7 µM (inactive)
GI50 [23]: > 100 µM (inactive)
GI50 [24]: 28.4 µM (inactive)
GI50 [25]: > 100 µM (inactive)
GI50 [26]: 82.2 µM (inactive)
GI50 [27]: > 100 µM (inactive)
GI50 [28]: 31.9 µM (inactive)
GI50 [29]: > 100 µM (inactive)
GI50 [30]: 24.1 µM (inactive)
GI50 [31]: > 100 µM (inactive)
GI50 [32]: 42.5 µM (inactive)
GI50 [33]: 24.4 µM (inactive)
GI50 [34]: > 100 µM (inactive)
GI50 [35]: > 100 µM (inactive)
GI50 [36]: > 100 µM (inactive)
GI50 [38]: > 100 µM (inactive)
GI50 [39]: > 100 µM (inactive)
GI50 [40]: 60.7 µM (inactive)
GI50 [41]: 63.1 µM (inactive)
GI50 [42]: 59.8 µM (inactive)
GI50 [43]: 64.7 µM (inactive)
GI50 [44]: 69.2 µM (inactive)
GI50 [45]: > 100 µM (inactive)
GI50 [46]: > 100 µM (inactive)
GI50 [47]: 88.1 µM (inactive)
GI50 [48]: 52.5 µM (inactive)
GI50 [49]: 75.3 µM (inactive)
GI50 [50]: > 100 µM (inactive)
GI50 [51]: 44.8 µM (inactive)
GI50 [52]: 17.1 µM (inactive)
GI50 [53]: > 100 µM (inactive)
GI50 [54]: 79.6 µM (inactive)
GI50 [55]: 64.7 µM (inactive)
GI50 [56]: 49.7 µM (inactive)
GI50 [57]: > 100 µM (inactive)
GI50 [58]: 67.9 µM (inactive)
GI50 [59]: 0.237 µM (active)
